SMILES strings stand for the structures.

Holding throughout (experiment): biochemical
Set-up in all cases: Ubiquigent DUB profiler selectivity panel, remaining enzyme activity as % of control
What all share (conditions): read-out: % of control remaining

One assay has as its target USP46/UAF1/WDR20 (Homo sapiens, UniProt P62068). On the procedure:
(§1) Previous work has reported IC50 values for a series of benzosulphonamide inhibitors, of which all those <1 μM were screened for selectivity, in comparison to three other USP family members ([20], [21]). We have selected one of these compounds (CMPD-39, Fig 1A) for a more rigorous test of selectivity provided by the Ubiquigent DUB profiler screening platform comprising >40 DUBs. […] To test engagement of the inhibitor with USP30 applied to intact cells, we assayed competition with Ub-PA (Ub-propargylamide). Ub-PA covalently binds to the USP30 active site leading to a characteristic upshift on a SDS–PAGE gel ([22]). If a drug blocks access to the catalytic site, then the probe modification is blocked and the apparent molecular weight of USP30 shifts down accordingly. […] A robust proxy read-out for target engagement is the enhancement of TOMM20 ubiquitylation after mitochondrial depolarization ([6], [16]). This second assay indicates a maximal effect with 200 nM CMPD-39 applied to RPE1-YFP-PRKN cells (Fig 1D).  Figure 1. CMPD-39 is a selective USP30 inhibitor. (A) Chemical structure of CMPD-39. (B) DUB specificity screen (DUB profiler, Ubiquigent) with 1-100 μM CMPD-39. […] Samples were incubated with CMPD-39 for 2 h at the indicated concentrations, then incubated with HA-Ub-PA probe for 10 min at 37°C and immunoblotted as shown. Red arrow indicates unbound USP30; blue arrow represents probe bound USP30. (D) Inhibition of USP30 enhances the ubiquitylation of TOMM20 in YFP-PRKN over-expressing hTERT-RPE1 cells in a concentration dependent manner in response to mitophagy induction. Cells were treated for 1 h with DMSO or antimycin A and oligomycin A (AO; 1 μM each) in the absence or presence of CMPD-39 at the indicated concentrations, lysed, and analyzed by Western blotting. Black arrow indicates unmodified TOMM20, ubiquitylated species are indicated by red (mono-ubiquitylated) or blue arrow heads. […] Source data are available for this figure.

The next assay addresses USP9x (Homo sapiens, UniProt Q93008). The procedure: as §1
In the next assay the target is T1, USP2 (Homo sapiens, UniProt O75604).
T1 sequence (O75604 1-605): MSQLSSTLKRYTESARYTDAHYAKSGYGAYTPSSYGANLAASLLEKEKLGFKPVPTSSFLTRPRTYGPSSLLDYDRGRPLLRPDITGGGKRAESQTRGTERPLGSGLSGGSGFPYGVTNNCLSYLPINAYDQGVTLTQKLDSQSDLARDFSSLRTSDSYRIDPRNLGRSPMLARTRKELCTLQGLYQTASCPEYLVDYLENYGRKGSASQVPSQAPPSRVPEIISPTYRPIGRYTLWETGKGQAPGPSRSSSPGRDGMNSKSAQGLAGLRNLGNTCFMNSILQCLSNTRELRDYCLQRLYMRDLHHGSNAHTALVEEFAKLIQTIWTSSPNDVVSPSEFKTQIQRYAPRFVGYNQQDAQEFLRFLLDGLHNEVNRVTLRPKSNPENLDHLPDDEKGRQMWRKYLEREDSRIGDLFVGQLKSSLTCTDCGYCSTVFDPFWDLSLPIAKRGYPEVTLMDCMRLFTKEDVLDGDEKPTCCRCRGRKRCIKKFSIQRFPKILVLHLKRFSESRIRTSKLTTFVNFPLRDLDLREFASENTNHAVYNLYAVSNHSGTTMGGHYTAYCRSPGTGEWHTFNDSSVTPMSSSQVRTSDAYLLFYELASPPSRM
The procedure: as §1

The target in a further assay is T2, USP28 (Homo sapiens, UniProt Q96RU2).
T2 sequence (Q96RU2 1-1077): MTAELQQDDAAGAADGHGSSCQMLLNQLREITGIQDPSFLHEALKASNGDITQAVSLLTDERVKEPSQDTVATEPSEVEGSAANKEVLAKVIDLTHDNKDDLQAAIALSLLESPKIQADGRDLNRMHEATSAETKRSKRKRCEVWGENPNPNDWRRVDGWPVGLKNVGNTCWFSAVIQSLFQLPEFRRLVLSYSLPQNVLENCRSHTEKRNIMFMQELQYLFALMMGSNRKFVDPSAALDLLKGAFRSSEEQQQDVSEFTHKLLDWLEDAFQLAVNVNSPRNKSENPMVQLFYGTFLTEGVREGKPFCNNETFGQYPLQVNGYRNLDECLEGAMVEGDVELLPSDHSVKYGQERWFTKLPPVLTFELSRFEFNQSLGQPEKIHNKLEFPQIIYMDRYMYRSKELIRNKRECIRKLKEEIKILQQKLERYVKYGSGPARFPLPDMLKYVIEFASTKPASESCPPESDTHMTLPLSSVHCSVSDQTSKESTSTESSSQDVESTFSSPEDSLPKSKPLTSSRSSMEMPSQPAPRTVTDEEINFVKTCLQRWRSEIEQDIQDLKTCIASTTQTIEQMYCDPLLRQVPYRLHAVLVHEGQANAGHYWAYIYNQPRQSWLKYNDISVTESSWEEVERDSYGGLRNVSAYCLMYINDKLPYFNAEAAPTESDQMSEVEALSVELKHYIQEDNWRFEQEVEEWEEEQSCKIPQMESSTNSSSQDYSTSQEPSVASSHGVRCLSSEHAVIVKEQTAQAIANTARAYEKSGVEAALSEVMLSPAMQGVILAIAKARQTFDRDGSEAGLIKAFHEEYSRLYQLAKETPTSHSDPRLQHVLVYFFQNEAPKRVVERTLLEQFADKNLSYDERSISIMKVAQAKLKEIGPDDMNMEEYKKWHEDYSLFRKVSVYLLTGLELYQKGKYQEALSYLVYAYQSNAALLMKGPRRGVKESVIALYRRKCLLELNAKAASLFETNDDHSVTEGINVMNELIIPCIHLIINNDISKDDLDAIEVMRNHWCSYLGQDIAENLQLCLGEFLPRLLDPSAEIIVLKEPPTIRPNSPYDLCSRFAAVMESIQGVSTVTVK
The procedure:
as §1

Chain of USP9x (Q93008 whole entry): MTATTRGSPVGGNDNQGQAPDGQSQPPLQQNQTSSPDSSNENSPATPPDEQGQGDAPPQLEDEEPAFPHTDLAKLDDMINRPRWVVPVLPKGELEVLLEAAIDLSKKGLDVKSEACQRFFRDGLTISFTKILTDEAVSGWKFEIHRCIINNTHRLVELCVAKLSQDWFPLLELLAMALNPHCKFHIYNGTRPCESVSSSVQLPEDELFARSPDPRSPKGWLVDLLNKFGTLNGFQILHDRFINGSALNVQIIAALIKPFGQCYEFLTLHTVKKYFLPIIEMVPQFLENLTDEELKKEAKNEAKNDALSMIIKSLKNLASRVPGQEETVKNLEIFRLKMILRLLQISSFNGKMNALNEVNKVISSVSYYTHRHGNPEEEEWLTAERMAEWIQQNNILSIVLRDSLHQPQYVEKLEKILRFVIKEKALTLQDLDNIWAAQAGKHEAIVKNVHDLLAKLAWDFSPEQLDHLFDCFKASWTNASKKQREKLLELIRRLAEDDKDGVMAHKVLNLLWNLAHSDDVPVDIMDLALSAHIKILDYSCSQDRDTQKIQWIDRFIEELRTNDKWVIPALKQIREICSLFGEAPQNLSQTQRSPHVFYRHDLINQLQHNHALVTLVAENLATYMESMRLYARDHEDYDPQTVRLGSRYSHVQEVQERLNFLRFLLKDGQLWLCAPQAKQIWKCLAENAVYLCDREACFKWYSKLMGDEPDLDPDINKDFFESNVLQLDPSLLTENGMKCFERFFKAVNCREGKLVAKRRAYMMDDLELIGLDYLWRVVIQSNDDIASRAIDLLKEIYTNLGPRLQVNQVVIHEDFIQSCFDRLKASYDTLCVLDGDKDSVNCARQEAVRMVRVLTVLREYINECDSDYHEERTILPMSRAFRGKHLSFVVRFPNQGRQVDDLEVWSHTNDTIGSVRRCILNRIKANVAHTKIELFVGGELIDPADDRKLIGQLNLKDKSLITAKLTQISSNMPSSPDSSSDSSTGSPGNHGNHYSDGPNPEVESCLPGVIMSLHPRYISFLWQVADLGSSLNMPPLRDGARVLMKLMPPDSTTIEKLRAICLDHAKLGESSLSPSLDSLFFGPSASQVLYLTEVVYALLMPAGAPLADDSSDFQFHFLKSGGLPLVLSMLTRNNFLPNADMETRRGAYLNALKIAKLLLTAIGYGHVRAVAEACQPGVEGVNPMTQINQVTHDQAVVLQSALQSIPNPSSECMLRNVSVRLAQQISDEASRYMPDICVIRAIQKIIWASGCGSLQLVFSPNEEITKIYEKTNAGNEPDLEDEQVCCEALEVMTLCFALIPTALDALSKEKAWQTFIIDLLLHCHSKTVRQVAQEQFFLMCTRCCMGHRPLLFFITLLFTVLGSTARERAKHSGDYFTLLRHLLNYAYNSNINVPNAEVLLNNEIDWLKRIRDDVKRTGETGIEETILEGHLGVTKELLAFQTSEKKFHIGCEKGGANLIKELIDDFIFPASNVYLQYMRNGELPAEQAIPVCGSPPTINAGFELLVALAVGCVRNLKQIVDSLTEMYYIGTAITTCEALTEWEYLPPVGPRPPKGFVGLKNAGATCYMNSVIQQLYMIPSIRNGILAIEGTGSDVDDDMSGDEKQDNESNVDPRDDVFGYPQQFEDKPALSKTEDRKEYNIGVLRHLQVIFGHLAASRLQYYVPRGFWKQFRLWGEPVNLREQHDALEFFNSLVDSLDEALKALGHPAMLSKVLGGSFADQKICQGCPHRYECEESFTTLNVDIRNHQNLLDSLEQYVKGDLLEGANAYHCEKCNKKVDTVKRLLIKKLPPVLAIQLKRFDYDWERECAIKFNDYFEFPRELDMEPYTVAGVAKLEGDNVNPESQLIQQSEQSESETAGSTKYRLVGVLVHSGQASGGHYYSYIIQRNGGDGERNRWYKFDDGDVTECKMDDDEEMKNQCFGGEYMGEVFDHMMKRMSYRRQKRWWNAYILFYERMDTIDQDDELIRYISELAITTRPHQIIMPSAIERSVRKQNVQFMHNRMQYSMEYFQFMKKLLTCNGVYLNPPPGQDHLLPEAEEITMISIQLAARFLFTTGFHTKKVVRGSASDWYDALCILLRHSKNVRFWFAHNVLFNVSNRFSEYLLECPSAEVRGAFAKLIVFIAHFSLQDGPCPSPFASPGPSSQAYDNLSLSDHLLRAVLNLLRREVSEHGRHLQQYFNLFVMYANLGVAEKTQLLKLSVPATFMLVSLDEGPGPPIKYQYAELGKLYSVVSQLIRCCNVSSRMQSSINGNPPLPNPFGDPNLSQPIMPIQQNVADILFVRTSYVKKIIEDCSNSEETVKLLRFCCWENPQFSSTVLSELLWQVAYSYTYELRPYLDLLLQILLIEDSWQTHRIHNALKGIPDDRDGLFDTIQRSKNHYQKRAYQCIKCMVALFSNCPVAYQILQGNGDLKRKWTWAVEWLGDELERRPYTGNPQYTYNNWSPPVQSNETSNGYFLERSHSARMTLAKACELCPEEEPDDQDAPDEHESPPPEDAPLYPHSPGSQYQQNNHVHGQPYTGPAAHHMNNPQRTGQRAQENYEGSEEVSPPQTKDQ
Chain of USP46/UAF1/WDR20 (P62068 whole entry): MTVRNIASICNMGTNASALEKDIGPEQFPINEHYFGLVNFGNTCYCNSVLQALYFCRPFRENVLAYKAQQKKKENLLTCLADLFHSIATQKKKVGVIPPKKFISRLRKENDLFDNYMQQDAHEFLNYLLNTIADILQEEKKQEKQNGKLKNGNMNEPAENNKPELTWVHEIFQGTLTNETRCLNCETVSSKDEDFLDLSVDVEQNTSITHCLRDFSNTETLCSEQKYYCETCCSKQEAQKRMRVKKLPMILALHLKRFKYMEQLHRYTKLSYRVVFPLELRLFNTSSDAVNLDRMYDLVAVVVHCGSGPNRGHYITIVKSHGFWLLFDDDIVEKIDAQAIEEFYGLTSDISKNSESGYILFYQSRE
Chain of USP46/UAF1/WDR20 (Q8TAF3 whole entry partner): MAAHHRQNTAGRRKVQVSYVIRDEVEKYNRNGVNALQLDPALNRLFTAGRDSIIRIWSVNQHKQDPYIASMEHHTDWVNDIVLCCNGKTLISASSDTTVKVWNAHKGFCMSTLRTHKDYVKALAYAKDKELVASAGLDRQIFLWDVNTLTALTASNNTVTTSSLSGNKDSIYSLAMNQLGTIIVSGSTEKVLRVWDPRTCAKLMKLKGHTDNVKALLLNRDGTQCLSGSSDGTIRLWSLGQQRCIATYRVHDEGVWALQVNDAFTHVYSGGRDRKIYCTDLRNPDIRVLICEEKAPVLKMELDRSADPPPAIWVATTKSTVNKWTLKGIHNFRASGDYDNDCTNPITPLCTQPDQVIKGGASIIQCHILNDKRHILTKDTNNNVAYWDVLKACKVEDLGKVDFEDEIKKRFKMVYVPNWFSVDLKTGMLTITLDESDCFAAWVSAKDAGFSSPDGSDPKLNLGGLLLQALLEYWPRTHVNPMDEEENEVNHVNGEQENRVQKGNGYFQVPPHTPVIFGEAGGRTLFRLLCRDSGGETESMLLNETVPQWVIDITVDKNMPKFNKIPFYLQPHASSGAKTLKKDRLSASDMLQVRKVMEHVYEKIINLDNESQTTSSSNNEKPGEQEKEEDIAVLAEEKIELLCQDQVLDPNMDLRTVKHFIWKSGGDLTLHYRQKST
Chain of USP46/UAF1/WDR20 (Q8TBZ3 whole entry partner): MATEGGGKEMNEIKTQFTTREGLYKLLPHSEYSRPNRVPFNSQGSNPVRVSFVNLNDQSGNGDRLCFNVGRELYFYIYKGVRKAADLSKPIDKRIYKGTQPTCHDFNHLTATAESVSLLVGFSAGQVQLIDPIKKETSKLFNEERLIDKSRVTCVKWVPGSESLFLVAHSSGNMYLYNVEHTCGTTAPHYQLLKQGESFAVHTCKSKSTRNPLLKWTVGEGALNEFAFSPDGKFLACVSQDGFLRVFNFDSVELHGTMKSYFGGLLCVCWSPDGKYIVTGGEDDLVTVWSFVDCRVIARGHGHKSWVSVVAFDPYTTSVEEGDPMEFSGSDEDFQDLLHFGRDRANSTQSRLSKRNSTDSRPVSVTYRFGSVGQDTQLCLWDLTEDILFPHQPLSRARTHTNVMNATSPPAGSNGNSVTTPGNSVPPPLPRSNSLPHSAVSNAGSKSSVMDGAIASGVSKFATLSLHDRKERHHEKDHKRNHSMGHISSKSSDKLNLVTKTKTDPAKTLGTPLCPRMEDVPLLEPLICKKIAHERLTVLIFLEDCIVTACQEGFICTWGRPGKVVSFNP

With `CC(C)(C)NS(=O)(=O)c1ccc(NC(=O)[C@H](Cc2ccccc2)NC(=O)c2ccc(F)cc2)cc1` [compound 39, CMPD-39], the remaining activity at 1 µM on USP46/UAF1/WDR20 is 110%; at USP9x, 104%; on USP2 it was 107%; on USP28 it was 96.5%. The remaining activity at 10 µM at USP46/UAF1/WDR20 is 97.5%; on USP9x it was 108%; at USP2, 97.7%; on USP28 it was 94.2%. Moreover, the remaining activity at 100 µM at USP46/UAF1/WDR20 stood at 97.4%; on USP9x it was 98.3%; at USP2, 101%; at USP28, 102%.
